Data reported in patent US20260274856A1, “COVALENT CEREBLON LIGANDS” (C4 THERAPEUTICS, INC., priority 2023, published 2026).

Target: cellular cereblon (CRBN) (Homo sapiens, UniProt Q96SW2)
Assay: NanoBRET Target Engagement Assay, competition with pomalidomide tracer in 293T.116 cells
Settings: 2 hours incubation, 293T.116 cells; IP

| SMILES | NanoBRET TE 293T.116 CRBN 2 hours IP nM |
| --- | --- |
| Cn1nc(N2CCC(=O)NC2=O)c2cccc(S(=O)(=O)F)c21 [Compound A-10, 3-(2,4-dioxotetrahydropyrimidin-1(2H)-yl)-1-methyl-1H-indazole-7-sulfonyl fluoride] | *** (<= 1 μM is ***) |
| CN(c1cccc(S(=O)(=O)F)c1)C1CCC(=O)NC1=O (stereo not drawn) [Compound A-11, 3-((2,6-dioxopiperidin-3-yl)(methyl)amino)benzenesulfonyl fluoride] | *** (<= 1 μM is ***) |
| O=C1CCC(c2ccc(S(=O)(=O)F)cc2)C(=O)N1 (stereo not drawn) [Compound A-12, 4-(2,6-dioxopiperidin-3-yl)benzenesulfonyl fluoride] | *** (<= 1 μM is ***) |
| O=C1CCN(c2ccc(S(=O)(=O)F)cc2)C(=O)N1 [Compound A-14, 4-(2,4-dioxotetrahydropyrimidin-1(2H)-yl)benzenesulfonyl fluoride] | ** (<10 μM and >1 μM is **) |
| O=C1CCN(c2ccc(OS(=O)(=O)F)cc2)C(=O)N1 [Compound A-15, 4-(2,4-dioxotetrahydropyrimidin-1(2H)-yl)phenyl sulfurofluoridate] | ** (<10 μM and >1 μM is **) |

Same assay, conditions: 6 hours incubation, 293T.116 cells; IP

| SMILES | NanoBRET TE 293T.116 CRBN 6 hours IP nM |
| --- | --- |
| Cn1nc(N2CCC(=O)NC2=O)c2cccc(S(=O)(=O)F)c21 [Compound A-10, 3-(2,4-dioxotetrahydropyrimidin-1(2H)-yl)-1-methyl-1H-indazole-7-sulfonyl fluoride] | *** (<= 1 μM is ***) |
| CN(c1cccc(S(=O)(=O)F)c1)C1CCC(=O)NC1=O (stereo not drawn) [Compound A-11, 3-((2,6-dioxopiperidin-3-yl)(methyl)amino)benzenesulfonyl fluoride] | *** (<= 1 μM is ***) |
| O=C1CCC(c2ccc(S(=O)(=O)F)cc2)C(=O)N1 (stereo not drawn) [Compound A-12, 4-(2,6-dioxopiperidin-3-yl)benzenesulfonyl fluoride] | *** (<= 1 μM is ***) |
| O=C1CCN(c2ccc(S(=O)(=O)F)cc2)C(=O)N1 [Compound A-14, 4-(2,4-dioxotetrahydropyrimidin-1(2H)-yl)benzenesulfonyl fluoride] | ** (<10 μM and >1 μM is **) |
| O=C1CCN(c2ccc(OS(=O)(=O)F)cc2)C(=O)N1 [Compound A-15, 4-(2,4-dioxotetrahydropyrimidin-1(2H)-yl)phenyl sulfurofluoridate] | ** (<10 μM and >1 μM is **) |

Same assay, conditions: 24 hours incubation, 293T.116 cells; IP

| SMILES | NanoBRET TE 293T.116 CRBN 24 hours IP nM |
| --- | --- |
| Cn1nc(N2CCC(=O)NC2=O)c2cccc(S(=O)(=O)F)c21 [Compound A-10, 3-(2,4-dioxotetrahydropyrimidin-1(2H)-yl)-1-methyl-1H-indazole-7-sulfonyl fluoride] | *** (<= 1 μM is ***) |
| CN(c1cccc(S(=O)(=O)F)c1)C1CCC(=O)NC1=O (stereo not drawn) [Compound A-11, 3-((2,6-dioxopiperidin-3-yl)(methyl)amino)benzenesulfonyl fluoride] | *** (<= 1 μM is ***) |
| O=C1CCC(c2ccc(S(=O)(=O)F)cc2)C(=O)N1 (stereo not drawn) [Compound A-12, 4-(2,6-dioxopiperidin-3-yl)benzenesulfonyl fluoride] | *** (<= 1 μM is ***) |
| O=C1CCN(c2ccc(S(=O)(=O)F)cc2)C(=O)N1 [Compound A-14, 4-(2,4-dioxotetrahydropyrimidin-1(2H)-yl)benzenesulfonyl fluoride] | ** (<10 μM and >1 μM is **) |
| O=C1CCN(c2ccc(OS(=O)(=O)F)cc2)C(=O)N1 [Compound A-15, 4-(2,4-dioxotetrahydropyrimidin-1(2H)-yl)phenyl sulfurofluoridate] | ** (<10 μM and >1 μM is **) |

Same assay, conditions: NanoBRET TE 293T.116 CRBN 2 hours IC50 nM, 2 hours incubation, 293T.116 cells

| SMILES | IC50 [nM] |
| --- | --- |
| Cn1nc(N2CCC(=O)NC2=O)c2cccc(S(=O)(=O)F)c21 [Compound A-10, 3-(2,4-dioxotetrahydropyrimidin-1(2H)-yl)-1-methyl-1H-indazole-7-sulfonyl fluoride] | < 1000 |
| CN(c1cccc(S(=O)(=O)F)c1)C1CCC(=O)NC1=O (stereo not drawn) [Compound A-11, 3-((2,6-dioxopiperidin-3-yl)(methyl)amino)benzenesulfonyl fluoride] | < 1000 |
| O=C1CCC(c2ccc(S(=O)(=O)F)cc2)C(=O)N1 (stereo not drawn) [Compound A-12, 4-(2,6-dioxopiperidin-3-yl)benzenesulfonyl fluoride] | < 1000 |
| O=C1CCN(c2ccc(S(=O)(=O)F)cc2)C(=O)N1 [Compound A-14, 4-(2,4-dioxotetrahydropyrimidin-1(2H)-yl)benzenesulfonyl fluoride] | 1000 to 10000 |
| O=C1CCN(c2ccc(OS(=O)(=O)F)cc2)C(=O)N1 [Compound A-15, 4-(2,4-dioxotetrahydropyrimidin-1(2H)-yl)phenyl sulfurofluoridate] | > 10000 |

Same assay, conditions: NanoBRET TE 293T.116 CRBN 6 hours IC50 nM, 6 hours incubation, 293T.116 cells

| SMILES | IC50 [nM] |
| --- | --- |
| Cn1nc(N2CCC(=O)NC2=O)c2cccc(S(=O)(=O)F)c21 [Compound A-10, 3-(2,4-dioxotetrahydropyrimidin-1(2H)-yl)-1-methyl-1H-indazole-7-sulfonyl fluoride] | < 1000 |
| CN(c1cccc(S(=O)(=O)F)c1)C1CCC(=O)NC1=O (stereo not drawn) [Compound A-11, 3-((2,6-dioxopiperidin-3-yl)(methyl)amino)benzenesulfonyl fluoride] | < 1000 |
| O=C1CCC(c2ccc(S(=O)(=O)F)cc2)C(=O)N1 (stereo not drawn) [Compound A-12, 4-(2,6-dioxopiperidin-3-yl)benzenesulfonyl fluoride] | < 1000 |
| O=C1CCN(c2ccc(S(=O)(=O)F)cc2)C(=O)N1 [Compound A-14, 4-(2,4-dioxotetrahydropyrimidin-1(2H)-yl)benzenesulfonyl fluoride] | 1000 to 10000 |
| O=C1CCN(c2ccc(OS(=O)(=O)F)cc2)C(=O)N1 [Compound A-15, 4-(2,4-dioxotetrahydropyrimidin-1(2H)-yl)phenyl sulfurofluoridate] | > 10000 |

Same assay, conditions: NanoBRET TE 293T.116 CRBN 24 hours IC50 nM, 24 hours incubation, 293T.116 cells

| SMILES | IC50 [nM] |
| --- | --- |
| Cn1nc(N2CCC(=O)NC2=O)c2cccc(S(=O)(=O)F)c21 [Compound A-10, 3-(2,4-dioxotetrahydropyrimidin-1(2H)-yl)-1-methyl-1H-indazole-7-sulfonyl fluoride] | < 1000 |
| CN(c1cccc(S(=O)(=O)F)c1)C1CCC(=O)NC1=O (stereo not drawn) [Compound A-11, 3-((2,6-dioxopiperidin-3-yl)(methyl)amino)benzenesulfonyl fluoride] | < 1000 |
| O=C1CCC(c2ccc(S(=O)(=O)F)cc2)C(=O)N1 (stereo not drawn) [Compound A-12, 4-(2,6-dioxopiperidin-3-yl)benzenesulfonyl fluoride] | 1000 to 10000 |
| O=C1CCN(c2ccc(S(=O)(=O)F)cc2)C(=O)N1 [Compound A-14, 4-(2,4-dioxotetrahydropyrimidin-1(2H)-yl)benzenesulfonyl fluoride] | > 10000 |
| O=C1CCN(c2ccc(OS(=O)(=O)F)cc2)C(=O)N1 [Compound A-15, 4-(2,4-dioxotetrahydropyrimidin-1(2H)-yl)phenyl sulfurofluoridate] | 1000 to 10000 |

Same assay, conditions: read-out: NanoBRET TE 293T.116 CRBN 2 hours Emax

| SMILES | Emax [%] |
| --- | --- |
| Cn1nc(N2CCC(=O)NC2=O)c2cccc(S(=O)(=O)F)c21 [Compound A-10, 3-(2,4-dioxotetrahydropyrimidin-1(2H)-yl)-1-methyl-1H-indazole-7-sulfonyl fluoride] | < 50 |
| CN(c1cccc(S(=O)(=O)F)c1)C1CCC(=O)NC1=O (stereo not drawn) [Compound A-11, 3-((2,6-dioxopiperidin-3-yl)(methyl)amino)benzenesulfonyl fluoride] | < 50 |
| O=C1CCC(c2ccc(S(=O)(=O)F)cc2)C(=O)N1 (stereo not drawn) [Compound A-12, 4-(2,6-dioxopiperidin-3-yl)benzenesulfonyl fluoride] | < 50 |
| O=C1CCN(c2ccc(S(=O)(=O)F)cc2)C(=O)N1 [Compound A-14, 4-(2,4-dioxotetrahydropyrimidin-1(2H)-yl)benzenesulfonyl fluoride] | < 50 |
| O=C1CCN(c2ccc(OS(=O)(=O)F)cc2)C(=O)N1 [Compound A-15, 4-(2,4-dioxotetrahydropyrimidin-1(2H)-yl)phenyl sulfurofluoridate] | 50 to 80 |

Same assay, conditions: read-out: NanoBRET TE 293T.116 CRBN 6 hours Emax

| SMILES | Emax [%] |
| --- | --- |
| Cn1nc(N2CCC(=O)NC2=O)c2cccc(S(=O)(=O)F)c21 [Compound A-10, 3-(2,4-dioxotetrahydropyrimidin-1(2H)-yl)-1-methyl-1H-indazole-7-sulfonyl fluoride] | < 50 |
| CN(c1cccc(S(=O)(=O)F)c1)C1CCC(=O)NC1=O (stereo not drawn) [Compound A-11, 3-((2,6-dioxopiperidin-3-yl)(methyl)amino)benzenesulfonyl fluoride] | < 50 |
| O=C1CCC(c2ccc(S(=O)(=O)F)cc2)C(=O)N1 (stereo not drawn) [Compound A-12, 4-(2,6-dioxopiperidin-3-yl)benzenesulfonyl fluoride] | < 50 |
| O=C1CCN(c2ccc(S(=O)(=O)F)cc2)C(=O)N1 [Compound A-14, 4-(2,4-dioxotetrahydropyrimidin-1(2H)-yl)benzenesulfonyl fluoride] | < 50 |
| O=C1CCN(c2ccc(OS(=O)(=O)F)cc2)C(=O)N1 [Compound A-15, 4-(2,4-dioxotetrahydropyrimidin-1(2H)-yl)phenyl sulfurofluoridate] | 50 to 80 |

Same assay, conditions: read-out: NanoBRET TE 293T.116 CRBN 24 hours Emax

| SMILES | Emax [%] |
| --- | --- |
| Cn1nc(N2CCC(=O)NC2=O)c2cccc(S(=O)(=O)F)c21 [Compound A-10, 3-(2,4-dioxotetrahydropyrimidin-1(2H)-yl)-1-methyl-1H-indazole-7-sulfonyl fluoride] | < 50 |
| CN(c1cccc(S(=O)(=O)F)c1)C1CCC(=O)NC1=O (stereo not drawn) [Compound A-11, 3-((2,6-dioxopiperidin-3-yl)(methyl)amino)benzenesulfonyl fluoride] | < 50 |
| O=C1CCC(c2ccc(S(=O)(=O)F)cc2)C(=O)N1 (stereo not drawn) [Compound A-12, 4-(2,6-dioxopiperidin-3-yl)benzenesulfonyl fluoride] | < 50 |
| O=C1CCN(c2ccc(S(=O)(=O)F)cc2)C(=O)N1 [Compound A-14, 4-(2,4-dioxotetrahydropyrimidin-1(2H)-yl)benzenesulfonyl fluoride] | 50 to 80 |
| O=C1CCN(c2ccc(OS(=O)(=O)F)cc2)C(=O)N1 [Compound A-15, 4-(2,4-dioxotetrahydropyrimidin-1(2H)-yl)phenyl sulfurofluoridate] | < 50 |
